Assay results: patent US6509002B1, “Diagnostic agent for diabetes” (priority 1997, dated 2003)

What was measured:
[1] = ^13C breath test, oral administration, diabetic vs normal rats; type: in vivo, rat; conditions: for slope from 20 to 30 min after the administration / Δ^13C value (‰) at 30 min after the administration: 300 mg/kg orally, Example 6
Experimental: As test animals, male Sprague-Dawley strain (SD) neonatal rats were purchased from Nippon Charles River K. K. together with their lactating rats. They were bred at 23±2° C. under 55±10% humidity before use. Insulin secretion-deficient type diabetes was generated by administering streptozotocin (STZ) to neonatal rats (“Saibokogaku (Cell Engineering)”, Extra Issue, medical Experiment Manual Series, Strategy for Study of Diabetes, edited by Susumu Seino and Yoshikazu Oka, published by Shujunsha Co., Japan). STZ was subcutaneously administered to 2-day-old rats at a dose of 90 mg/kg. The STZ had been dissolved in a citrate buffer (pH 4.5) and was administered within 5 min after the dissolution. Two days after the administration, blood was collected by cardiac puncture, and the casual blood sugar level of each rat was measured with Terumo […] (blood sugar measurement set). […] However, their fasting blood sugar levels increase only slightly and remain at almost normal levels. According to the standards stipulated by the Japan Diabetes Society (1982), those individuals with a fasting blood sugar level (in venous whole blood) of […] or more are regarded as having diabetes (“[…] (Diabetes Test Manual)”, edited by Yukio […], published by Nanko-Do Co., Japan). Then, those rats with a fasting blood sugar level of less than 120 mg/dl (and with a casual blood sugar level of 250 mg/dl or more) which are not regarded as having diabetes in a fasting blood sugar level test were selected from the above-described rats with insulin secretion-deficient type diabetes and used as a model of light diabetes. Breath tests were carried out according to the method as described in (2)-1 or (2)-2 below on diabetic rats prepared in (1) above (8-10-week-old) and normal rats (8-10-week-old). Δ^13C (‰)=[(^13C t min-^13C 0 min)/^13C std]×1000 […] A blood sample was collected from the tail vein, and its sugar level was determined using Terumo […] (blood sugar measurement set). The exhalation was sucked with a stroke pump 18 (variable stroke pump VS-500; Shibata Scientific Technology) at a rate of 100-300 ml/min and introduced directly into a flow cell in ^13CO2 Analyzer EX-130S (Japan Spectroscopic Co., Ltd.) 20. […] Pure Drier ([…] Pure Inc.) was located between the rat holder and the stroke pump 18 to remove moisture in the exhalation (FIG. 1). […] The data output from the ^13CO2 analyzer 20 were incorporated into a personal computer 21 (Apple Power Macintosh 8500) after AD conversion. Using the data processing software Lab VIEW (National Instruments), data on ten points at every 100 msec were added up and averaged at intervals of 5 sec and then converted into ^13C atom %, Δ^13C (‰) and CO2 gas concentration (%), to thereby perform a continuous measurement ^13C breath test. […] Δ^13C (‰) was calculated by the formula described above.

[2] = ^13C breath test, intravenous administration (femoral vein), diabetic vs normal rats; type: in vivo, rat
Description: As test animals, male Sprague-Dawley strain (SD) neonatal rats were purchased from Nippon Charles River K. K. together with their lactating rats. […] Insulin secretion-deficient type diabetes was generated by administering streptozotocin (STZ) to neonatal rats (“Saibokogaku (Cell Engineering)”, Extra Issue, medical Experiment Manual Series, Strategy for Study of Diabetes, edited by Susumu Seino and Yoshikazu Oka, published by Shujunsha Co., Japan). STZ was subcutaneously administered to 2-day-old rats at a dose of 90 mg/kg. […] Two days after the administration, blood was collected by cardiac puncture, and the casual blood sugar level of each rat was measured with Terumo […] (blood sugar measurement set). […] Breath tests were carried out according to the method as described in (2)-1 or (2)-2 below on diabetic rats prepared in (1) above (8-10-week-old) and normal rats (8-10-week-old). […] A blood sample was collected from the tail vein, and its sugar level was determined using Terumo […] (blood sugar measurement set). […] Fine Science Tools Inc.).

[3] = diabetic rats, 50 mg/kg orally, Example 33
[4] = normal rats, 50 mg/kg orally, Example 33
[5] = diabetic rats, 45 mg/kg orally, Example 26
[6] = normal rats, 45 mg/kg orally, Example 26
[7] = diabetic rats, 20 mg/kg from the femoral vein, Example 21
[8] = normal rats, 20 mg/kg from the femoral vein, Example 21
[9] = diabetic rats, 50 mg/kg from the femoral vein, Example 16
[10] = normal rats, 50 mg/kg from the femoral vein, Example 16
[11] = diabetic rats, 10 mg/kg from the femoral vein, Example 15
[12] = normal rats, 10 mg/kg from the femoral vein, Example 15
[13] = diabetic rats, 60 mg/kg orally, Example 17
[14] = normal rats, 60 mg/kg orally, Example 17
[15] = diabetic rats, 20 mg/kg from the femoral vein, Example 11
[16] = normal rats, 20 mg/kg from the femoral vein, Example 11
[17] = diabetic rats, 50 mg/kg from the femoral vein, Example 35
[18] = normal rats, 50 mg/kg from the femoral vein, Example 35
[19] = diabetic rats, 50 mg/kg from the femoral vein, Example 27
[20] = normal rats, 50 mg/kg from the femoral vein, Example 27
[21] = diabetic rats, 40 mg/kg from the femoral vein, Example 36
[22] = normal rats, 40 mg/kg from the femoral vein, Example 36
[23] = diabetic rats, 30 mg/kg orally, Example 7
[24] = normal rats, 30 mg/kg orally, Example 7

CCCCCCC[13C](=O)OCC(CO[13C](=O)CCCCCCC)O[13C](=O)CCCCCCC [1,1,1-^13C-trioctanoin]
time course of Δ^13C values (‰) [1, 3]: continued increasing up to 30 min | Δ^13C value (‰) at 20 min after the administration [1, 3]: 150.72±22.48 ‰ | time course of Δ^13C values (‰) [1, 4]: continued increasing up to 30 min | Δ^13C value (‰) at 20 min after the administration [1, 4]: 110.16±16.08 ‰

NC(CSSCC(N)[13C](=O)O)[13C](=O)O (centres unmarked) [1-^13C-cystine]
slope from 5 to 10 min after the administration [1, 5]: 46.82±2.94 ‰/5 min | time course of Δ^13C values (‰) [1, 5]: continued increasing up to 30 min | Δ^13C value (‰) at 10 min after the administration [1, 5]: 69.15±6.44 ‰ | slope from 5 to 10 min after the administration [1, 6]: 30.86±10.06 ‰/5 min | time course of Δ^13C values (‰) [1, 6]: continued increasing up to 30 min | Δ^13C value (‰) at 10 min after the administration [1, 6]: 45.26±8.68 ‰

O=[13C](O)C1CCCN1 (centres unmarked) [1-^13C-proline]
time course of Δ^13C values (‰) [2, 7]: increased up to about 9 min after the administration of 1-^13C-proline, but thereafter decreased gradually up to 20 min | Δ^13C value (‰) at 20 min after the administration [2, 7]: 115.77±6.61 ‰ | time course of Δ^13C values (‰) [2, 8]: increased up to about 9 min after the administration of 1-^13C-proline, but thereafter decreased gradually up to 20 min | Δ^13C value (‰) at 20 min after the administration [2, 8]: 92.27±11.10 ‰

N[C@@H](CO)[13C](=O)O [1-^13C-serine]
slope from 1 to 4 min after the administration [2, 9]: 158.13±41.24 ‰/3 min | time course of Δ^13C values (‰) [2, 9]: increased sharply up to about 8 min after the administration, but thereafter decreased gradually up to 20 min | Δ^13C value (‰) at 10 min after the administration [2, 9]: 228.08±43.45 ‰ | slope from 1 to 4 min after the administration [2, 10]: 84.17±11.38 ‰/3 min | time course of Δ^13C values (‰) [2, 10]: increased up to about 8 min after the administration of 1-^13C-serine, and thereafter remained at an almost constant level | Δ^13C value (‰) at 10 min after the administration [2, 10]: 127.79±10.69 ‰

N[C@@H](Cc1c[nH]c2ccccc12)[13C](=O)O [1-^13C-tryptophan]
slope from 10 to 15 min after the administration [2, 11]: 4.46±0.49 ‰/5 min | time course of Δ^13C values (‰) [2, 11]: continued increasing up to 20 min | Δ^13C value (‰) at 20 min after the administration [2, 11]: 19.42±4.37 ‰ | slope from 10 to 15 min after the administration [2, 12]: 1.20±0.93 ‰/5 min | time course of Δ^13C values (‰) [2, 12]: continued increasing up to 20 min | Δ^13C value (‰) at 20 min after the administration [2, 12]: 8.10±0.77 ‰

N[C@@H](C[13c]1ccc(O)cc1)C(=O)O [1-^13C-tyrosine]
slope from 5 to 10 min after the administration [1, 13]: 79.62±19.90 ‰/5 min | time course of Δ^13C values (‰) [1, 13]: increased up to about 20 min after the administration, but thereafter decreased gradually up to 30 min | Δ^13C value (‰) at 20 min after the administration [1, 13]: 205.30±51.43 ‰ | slope from 5 to 10 min after the administration [1, 14]: 27.52±17.10 ‰/5 min | time course of Δ^13C values (‰) [1, 14]: continued increasing up to 30 min | Δ^13C value (‰) at 20 min after the administration [1, 14]: 73.96±35.10 ‰

CC(C)[C@H](N)[13C](=O)O [1-^13C-valine]
slope from 2 to 4 min after the administration [2, 15]: 38.55±3.15 ‰/2 min | time course of Δ^13C values (‰) [2, 15]: sharply increased up to about 6 min after the administration of 1-^13C-valine, and thereafter increased gradually up to 20 min | Δ^13C value (‰) at 5 min after the administration [2, 15]: 73.54±7.30 ‰ | slope from 2 to 4 min after the administration [2, 16]: 24.17±2.32 ‰/2 min | time course of Δ^13C values (‰) [2, 16]: sharply increased up to about 6 min after the administration of 1-^13C-valine, and thereafter increased gradually up to 20 min | Δ^13C value (‰) at 5 min after the administration [2, 16]: 45.99±5.62 ‰

O=[13CH][C@H](O)[C@@H](O)[C@H](O)CO [1-^13C-xylose]
slope from 20 to 30 min after the administration ([1]; diabetic rats): 12.80±2.18 ‰/10 min | Δ^13C value (‰) at 30 min after the administration ([1]; diabetic rats): 23.40±7.60 ‰ | slope from 20 to 30 min after the administration ([1]; normal rats): 4.61±1.40 ‰/10 min | Δ^13C value (‰) at 30 min after the administration ([1]; normal rats): 6.82±3.02 ‰

O=[13C](CO)[C@@H](O)[C@H](O)[C@H](O)CO [2-^13C-fructose]
Δ^13C value (‰) at 20 min after the administration ([2]; rat, in vivo): 94.68 ‰ | slope from 2 to 6 min after the administration ([2]; rat, in vivo, 100 mg/kg): 21.4±1.84 ‰/4 min | Δ^13C value (‰) at 20 min after the administration ([2]; rat, in vivo, 100 mg/kg): 58.75±2.73 ‰

O=C[13C@H](O)[C@@H](O)[C@@H](O)[C@H](O)CO [2-^13C-galactose]
time course of Δ^13C values (‰) ([2]; rat, in vivo, 100 mg/kg): continued increasing up to 20 min

OC[13CH](O)CO [2-^13C-glycerol]
slope from 2 to 7 min after the administration [2, 17]: 62.72±3.22 ‰/5 min | time course of Δ^13C values (‰) [2, 17]: increased sharply up to about 8 min after the administration, and thereafter increased gradually up to 20 min | Δ^13C value (‰) at 20 min after the administration [2, 17]: 112.44±5.12 ‰ | slope from 2 to 7 min after the administration [2, 18]: 16.99±1.61 ‰/5 min | time course of Δ^13C values (‰) [2, 18]: continued increasing gradually up to 20 min after the administration of 2-^13C-glycerol, and thereafter remained at an almost constant level | Δ^13C value (‰) at 20 min after the administration [2, 18]: 54.77±4.23 ‰

[13CH3]C(O)C(=O)[O-].[Na+] (centres unmarked) [3-^13C-sodium lactate]
^13C value (‰) at 10 min after the administration [2, 19]: 202.08±6.05 ‰ | slope from 2 to 4 min after the administration [2, 19]: 96.83±17.69 ‰/2 min | time course of Δ^13C values (‰) [2, 19]: increased sharply up to about 7 min after the administration, but thereafter decreased gradually up to 20 min | ^13C value (‰) at 10 min after the administration [2, 20]: 130.30±11.47 ‰ | slope from 2 to 4 min after the administration [2, 20]: 60.69±6.80 ‰/2 min | time course of Δ^13C values (‰) [2, 20]: increased sharply up to about 5 min after the administration of 3-^13C-sodium lactate, and thereafter increased gradually up to 20 min

Cc1c(N([13CH3])[13CH3])c(=O)n(-c2ccccc2)n1C [N,N-dimethyl-^13C-aminopyrin]
slope from 1 to 2 min after the administration [2, 21]: 95.68±16.33 ‰/min | time course of Δ^13C values (‰) [2, 21]: increased sharply up to about 5 min after the administration, and thereafter remained at an almost constant level up to 20 min | Δ^13C value (‰) at 20 min after the administration [2, 21]: 193.62±22.21 ‰ | slope from 1 to 2 min after the administration [2, 22]: 41.16±8.89 ‰/min | time course of Δ^13C values (‰) [2, 22]: increased sharply up to about 3 min after the administration of N,N-dimethyl-^13C-aminopyrin, and thereafter increased gradually up to 20 min | Δ^13C value (‰) at 20 min after the administration [2, 22]: 92.2±12.64 ‰

U-^13C-starch
^13C value (‰) at 30 min after the administration [1, 23]: 144.50±23.27 ‰ | time course of Δ^13C values (‰) [1, 23]: continued increasing up to 20 min | ^13C value (‰) at 30 min after the administration [1, 24]: 213.89±4.66 ‰ | time course of Δ^13C values (‰) [1, 24]: continued increasing up to 20 min
